Reference: patent US5053006A, “Method for the permanent occlusion of arteries” (priority 1990, dated 1991)

Tests used:
[1] = Absorption / excitation of the dye in tissue; type: physicochemical; conditions: endothelial tissue
Excerpt: Examples of lasers that can be used to provide the light beam include the He-Ne laser, the argon ion laser and the argon-pumped dye laser. The 543.5 nm He-Ne laser, for example, can excite rose bengal with an efficiency of 58% of the maximum. (The wavelength at which excitation efficiency for rose bengal is maximal in tissue occurs at 562 nm.) Because the maximum theoretical power output is only 4 or 5 milliwatts, the 543.5 nm He-Ne laser is not used in clinical applications at this time. However, this laser is expected to be particularly useful in permanently occluding relatively low-flow arteries, smaller than about 200 μm, such as those in the choroid of the eye.
The argon ion laser is the most common clinical laser used at this time. Although the commonly used argon 514.5 nm line is only 36% efficient with respect to the maximum of rose bengal absorption, this laser is much more powerful (by at least a factor of 1000) and versatile than the He-Ne laser.
The absorption maximum of erythrosin B in endothelial tissue is at 536 nm, which is closer than that of rose bengal to the standard 514.5 nm wavelength of the argon ion laser.

[2] = compared with rose bengal; cited from earlier work
middle cerebral artery = assay: Erythrosin B photothrombotic occlusion of middle cerebral artery; type: in vivo, rat
[3] = in vivo; cited from earlier work

Row | Compound | absorption maximum in endothelial tissue [1] | quantum efficiency for singlet oxygen production [2] | photothrombotic efficiency in vivo (middle cerebral artery; 514.5 nm argon line, vs rose bengal) | photothrombotic occlusion of rat MCA (middle cerebral artery; i.v., argon ion laser, 680 μM blood concentration) | half life [3]
1 | O.O=C([O-])c1ccccc1-c1c2cc(I)c(=O)c(I)c-2oc2c(I)c([O-])c(I)cc12.[Na+].[Na+] [erythrosin B] | 536 nm | slightly less | comparable photothrombotic efficiency | photothrombotically occlude the rat middle cerebral artery in the same fashion as rose bengal | –
2 | dihematoporphyrin ether [dihematoporphyrin ether derivative] | – | – | – | – | so long
